Key:
[1] = molecular target: human activated kallikrein enzyme (Homo sapiens, UniProt P03952); assay: Plasma kallikrein inhibition, fluorogenic PFR-AMC substrate, 500 pM activated kallikrein format; type: biochemical; settings: 500 pM activated kallikrein, 300 uM PFR-AMC, 30 min preincubation, 10 min reaction; read-out: Primary Dose Response Assay: Average EC50
Method in brief: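 Enzyme at 500 pM preincubated 30 min RT with inhibitors in 20 mM Tris pH 7.5, 1 mM EDTA, 150 mM NaCl, 0.1% PEG-400, 0.1% Triton X-100. Reaction started with 300 uM PFR-AMC, run 10 min RT; fluorescence read at 460 nm emission, 380 nm excitation. EC50 reported in ranges.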

plasma kallikrein = molecular target: T1, plasma kallikrein (Homo sapiens, UniProt P03952); assay: Neat human plasma assay, FXIIa contact pathway-activated, PFR-AMC substrate; type: biochemical; settings: citrated human plasma 78% final, 10 nM human FXIIa, 100 μM PFR-AMC; read-out: Human Plasma Assay: IC90
T1 construct: from tissue
Method in brief: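 Citrated human plasma (78% final) with compound, contact-activated by 10 nM human FXIIa in pKal buffer pH 7.5, with 100 μM PFR-AMC. Fluorescence (360/480 nm) followed 5 min at room temperature; rates versus concentration fitted by 4-parameter equation for IC50/IC90.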

Sequence of human activated kallikrein enzyme (P03952 391-638 limits assumed): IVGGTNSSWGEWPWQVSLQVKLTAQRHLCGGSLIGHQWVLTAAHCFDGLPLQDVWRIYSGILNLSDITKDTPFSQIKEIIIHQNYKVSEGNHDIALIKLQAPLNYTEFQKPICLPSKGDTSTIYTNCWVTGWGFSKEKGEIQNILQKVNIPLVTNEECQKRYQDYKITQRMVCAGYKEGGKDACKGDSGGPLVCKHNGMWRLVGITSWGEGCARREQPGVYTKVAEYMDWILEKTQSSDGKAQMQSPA
Sequence of human activated kallikrein enzyme (P03952 20-390 partner limits assumed): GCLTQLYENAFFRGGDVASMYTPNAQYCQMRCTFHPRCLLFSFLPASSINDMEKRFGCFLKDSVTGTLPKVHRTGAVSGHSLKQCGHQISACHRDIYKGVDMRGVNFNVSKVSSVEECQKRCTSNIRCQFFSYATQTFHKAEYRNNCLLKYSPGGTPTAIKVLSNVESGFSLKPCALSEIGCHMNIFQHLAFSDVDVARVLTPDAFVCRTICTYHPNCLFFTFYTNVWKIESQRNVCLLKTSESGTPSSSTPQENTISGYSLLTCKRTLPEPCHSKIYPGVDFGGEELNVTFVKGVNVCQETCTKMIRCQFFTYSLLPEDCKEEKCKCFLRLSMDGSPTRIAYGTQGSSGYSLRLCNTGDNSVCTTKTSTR
T1 sequence (P03952 391-638 limits assumed): as the sequence (P03952 391-638 limits assumed) above
T1 sequence (P03952 20-390 partner limits assumed): as the sequence (P03952 20-390 partner limits assumed) above

SMILES | EC50 [1] [nM] | IC90 (plasma kallikrein) [nM]
N#Cc1cc(C2CC2)cn2cc(CNc3cc(NC(=O)[C@H]4C[C@@H]4c4cccc(Cl)c4)ncn3)nc12 (racemic) [Example 71, rac-(1S*,2S*)-2-(3-chlorophenyl)-N-(6-(((8-cyano-6-cyclopropylimidazo[1,2-a]pyridin-2-yl)methyl)amino)pyrimidin-4-yl)cyclopropane-1-carboxamide] | 1 to 10 | 10000 to 48000
Cc1ccnc([C@H]2C[C@@H]2C(=O)Nc2cc(OCc3cn4cc(C5CC5)cc(N5CC(=O)N(C)C5=O)c4n3)ncn2)n1 (single isomer, unassigned) [Example 30] | < 1 | < 400
CN(C)C(=O)c1cc(C2CC2)cn2cc(CNc3cc(NC(=O)[C@H]4C[C@@H]4c4cccc(Cl)c4)ncn3)nc12 [Example 299, 2-(((6-((1S,2S)-2-(3-chlorophenyl)cyclopropane-1-carboxamido)pyrimidin-4-yl)amino)methyl)-6-cyclopropyl-N,N-dimethylimidazo[1,2-a]pyridine-8-carboxamide] | < 1 | 400 to 1500
CN(C)C1CC(=O)N(c2cc(C3CC3)cn3cc(CNc4cc(NC(=O)[C@H]5C[C@@H]5c5cccc(Cl)c5)ncn4)nc23)C1 (stereo partly drawn) [Example I-18, (1S,2S)-2-(3-chlorophenyl)-N-(6-(((6-cyclopropyl-8-(4-(dimethylamino)-2-oxopyrrolidin-1-yl)imidazo[1,2-a]pyridin-2-yl)methyl)amino)pyrimidin-4-yl)cyclopropane-1-carboxamide] | < 1 | < 400
Cc1ccnc([C@H]2C[C@@H]2C(=O)Nc2cc(NCc3cn4cc(C5CC5)cc(N5CC(=O)NC5=O)c4n3)ncn2)n1 (racemic) [Example 392, rac-(1S*,2S*)-N-(6-(((6-cyclopropyl-8-(2,4-dioxoimidazolidin-1-yl)imidazo[1,2-a]pyridin-2-yl)methyl)amino)pyrimidin-4-yl)-2-(4-methylpyrimidin-2-yl)cyclopropane-1-carboxamide] | < 1 | 400 to 1500
Cc1nc(NC(=O)[C@H]2C[C@@H]2c2ncc(F)c(C)n2)cc(N[C@H](C)c2cn3cc(C4CC4)cc(N4CC(=O)N(C)C4=O)c3n2)n1 (relative stereo) [Example 491, rac-(-(1S*,2S*)-N-(6-(((R)-1-(6-cyclopropyl-8-(3-methyl-2,4-dioxoimidazolidin-1-yl)imidazo[1,2-a]pyridin-2-yl)ethyl)amino)-2-methylpyrimidin-4-yl)-2-(5-fluoro-4-methylpyrimidin-2-yl)cyclopropane-1-carboxamide] | < 1 | 400 to 1500
O=C(Nc1cc(NCc2cn3cc(C4CC4)cc(NC4COC4)c3n2)ccn1)[C@H]1C[C@@H]1c1cccc(Cl)c1 [Example I-26, (1S,2S)-2-(3-chlorophenyl)-N-(4-(((6-cyclopropyl-8-(oxetan-3-ylamino)imidazo[1,2-a]pyridin-2-yl)methyl)amino)pyridin-2-yl)cyclopropane-1-carboxamide] | < 1 | 1500 to 10000
Cc1ccnc([C@H]2C[C@@H]2C(=O)Nc2cc(NCc3cn4cc(C5(F)CC5)cc(N5CC(=O)N(C)C5=O)c4n3)ncn2)n1 [Example 374, (1S,2S)-N-(6-(((6-(1-fluorocyclopropyl)-8-(3-methyl-2,4-dioxoimidazolidin-1-yl)imidazo[1,2-a]pyridin-2-yl)methyl)amino)pyrimidin-4-yl)-2-(4-methylpyrimidin-2-yl)cyclopropane-1-carboxamide] | < 1 | < 400
COc1ccc(C#N)c([C@H]2C[C@@H]2C(=O)Nc2cc(NCc3cn4cc(C5CC5)ccc4n3)ccn2)c1 (single isomer, unassigned) [Example I-224, rac-(1S*,2S*)-2-(2-cyano-5-methoxyphenyl)-N-(4-(((6-cyclopropylimidazo[1,2-a]pyridin-2-yl)methyl)amino)pyridin-2-yl)cyclopropane-1-carboxamide] | < 1 | 10000 to 48000
COCc1nc(NC(=O)[C@H]2C[C@@H]2c2nccc(C)n2)cc(N[C@H](C)c2cn3cc(C4CC4)cc(N4CC(=O)N(C)C4=O)c3n2)n1 [Example 355, (1S,2S)-N-(6-(((R)-1-(6-cyclopropyl-8-(3-methyl-2,4-dioxoimidazolidin-1-yl)imidazo[1,2-a]pyridin-2-yl)ethyl)amino)-2-(methoxymethyl)pyrimidin-4-yl)-2-(4-methylpyrimidin-2-yl)cyclopropane-1-carboxamide] | < 1 | < 400
O=C(Nc1cc(NCc2cn3cc(C4CC4)cc(N4CCNCC4)c3n2)ncn1)[C@H]1C[C@@H]1c1cccc(Cl)c1 [Example 307, (1S,2S)-2-(3-chlorophenyl)-N-(6-(((6-cyclopropyl-8-(piperazin-1-yl)imidazo[1,2-a]pyridin-2-yl)methyl)amino)pyrimidin-4-yl)cyclopropane-1-carboxamide] | < 1 | < 400
Cc1ccnc([C@H]2C[C@@H]2C(=O)Nc2ncnc(NCc3cn4cc(C5CC5)cc(N5CC(=O)N(C)C5=O)c4n3)n2)n1 (racemic) [Example 623, rac-(1S*,2S*)—N-(4-(((6-cyclopropyl-8-(3-methyl-2,4-dioxoimidazolidin-1-yl)imidazo[1,2-a]pyridin-2-yl)methyl)amino)-1,3,5-triazin-2-yl)-2-(4-methylpyrimidin-2-yl)cyclo propane-1-carboxamide] | < 1 | < 400
COCC(Nc1cc(NC(=O)[C@H]2C[C@@H]2c2nccc(C)n2)ncn1)c1cn2cc(C3CC3)cc(N3CC(=O)N(C)C3=O)c2n1 (stereo partly drawn) [Example 373, (1S,2S)-N-(6-((1-(6-cyclopropyl-8-(3-methyl-2,4-dioxoimidazolidin-1-yl)imidazo[1,2-a]pyridin-2-yl)-2-methoxyethyl)amino)pyrimidin-4-yl)-2-(4-methylpyrimidin-2-yl)cyclopropane-1-carboxamide] | 1 to 10 | 400 to 1500
Cc1ccnc([C@H]2C[C@@H]2C(=O)Nc2cc(OCc3cn4cc(C5CC5)cc(N5CC(=O)N(C)C5=O)c4n3)c(C)nn2)n1 [Example 560, (1S,2S)-N-(5-((6-cyclopropyl-8-(3-methyl-2,4-dioxoimidazolidin-1-yl)imidazo[1,2-a]pyridin-2-yl)methoxy)-6-methylpyridazin-3-yl)-2-(4-methylpyrimidin-2-yl)cyclopropane-1-carboxamide] | < 1 | < 400
COC(=O)CN1C(=O)CN(c2cc(C3CC3)cn3cc(COc4cc(NC(=O)[C@H]5C[C@@H]5c5nccc(C)n5)nc(C)n4)nc23)C1=O [Example 550, methyl 2-(3-(6-cyclopropyl-2-(((2-methyl-6-((1S,2S)-2-(4-methylpyrimidin-2-yl)cyclopropane-1-carboxamido)pyrimidin-4-yl)oxy)methyl)imidazo[1,2-a]pyridin-8-yl)-2,5-dioxoimidazolidin-1-yl)acetate] | < 1 | 400 to 1500
O=C(Nc1cncc(NCc2cn3cc(C4CC4)ccc3n2)c1)[C@H]1C[C@@H]1c1cccc(Cl)c1 (racemic) [Example 574, rac-(1S*,2S*)-2-(3-chlorophenyl)-N-(5-(((6-cyclopropylimidazo[1,2-a]pyridin-2-yl)methyl)amino)pyridin-3-yl)cyclopropane-1-carboxamide] | 1 to 10 | 10000 to 48000

— patent US20240228488A1 (TAKEDA PHARMACEUTICAL COMPANY LIMITED, priority 2021, published 2024)
